{"source": "paper PMC7985297", "about": "(Communications Biology, 2021)", "key": {"[1]": {"system": "LN95 cells", "test": "Colony formation of LN95 cells", "format": "cell-based, human", "conditions": "LN95, ATRA 5 or 10 µM, EPI-002 25 µM, treated 24 hours then re-plated", "procedure": "page 5: Supplementary Figure 5 a b […] (a) Representative images of colonies from LN95 cells after […] EPI-002. After treating with compounds for 24 hours, the media was removed, and 500 -1,000 cells were re-plated in 6-well plates. Colonies were fixed with 4% paraformaldehyde, stained with a 0.1% crystal violet solution, and then imaged. […]"}, "[2]": {"molecular_target": "T1, human AR NTD (AR1–558) fused to Gal4DBD (Gal4-ARN) (Homo sapiens, UniProt P10275)", "T1 construct": "construct encoding the human AR1–558 of the NTD fused to a Gal4DBD (Gal4-ARN); expressed in transfected cells; host or cells: LNCaP", "T1 sequence (P10275 1-558)": "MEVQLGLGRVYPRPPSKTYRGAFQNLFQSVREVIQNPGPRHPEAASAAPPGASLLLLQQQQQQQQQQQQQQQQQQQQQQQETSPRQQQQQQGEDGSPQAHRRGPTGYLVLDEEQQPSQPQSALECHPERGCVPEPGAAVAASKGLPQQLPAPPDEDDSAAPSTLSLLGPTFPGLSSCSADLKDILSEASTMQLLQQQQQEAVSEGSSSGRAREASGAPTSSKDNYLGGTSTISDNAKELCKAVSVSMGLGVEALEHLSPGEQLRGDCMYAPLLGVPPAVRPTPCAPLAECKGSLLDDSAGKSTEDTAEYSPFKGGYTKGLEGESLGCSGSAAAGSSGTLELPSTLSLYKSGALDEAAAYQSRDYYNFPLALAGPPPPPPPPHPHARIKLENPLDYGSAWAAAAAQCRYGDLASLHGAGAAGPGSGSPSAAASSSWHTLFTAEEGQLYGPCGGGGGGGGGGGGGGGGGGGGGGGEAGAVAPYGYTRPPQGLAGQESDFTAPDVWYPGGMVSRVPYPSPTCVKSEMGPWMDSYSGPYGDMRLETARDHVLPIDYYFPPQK", "test": "AR NTD transactivation assay (Gal4-ARN) in LNCaP cells", "format": "cell-based", "conditions": "EPI-002 25 μM, juglone 20 μM, ATRA 10 μM, 24 h", "source_text": "The remaining putative Pin1-binding sites are within the intrinsically disordered AR NTD that contains transcription activation units, Tau-1 and Tau-5, to mediate androgen-dependent and androgen-independent transactivation, respectively[5],[30]. The loss of AR-LBD shifts the location of transcriptional activity from Tau-1 with androgen, to Tau-5 in the absence of LBD[30].\nError bars show the mean ± s.e.m. *P < 0.05, **P < 0.01, ***P < 0.001; ns not significant."}, "[3]": {"system": "LN95 cells", "test": "Senescence-associated β-galactosidase staining, LN95", "conditions": "LN95, ATRA 10 μM, EPI-002 25 μM, 3 days", "description": "β-galactosidase activity at suboptimal pH (6.0) was used as a marker to detect cellular senescence[42]. Cells were seeded in four-well chamber slides at a density of 8000-10,000 cells. […] Three days later, the media was removed and cells were fixed with 2% formaldehyde/0.2% glutaraldehyde for 10 min at room temperature, washed with PBS, and then incubated with freshly prepared β-Gal staining solution (Cell Signaling) titrated to pH 6.0. Staining was optimal after incubating with the β-Gal solution at 37 °C for 16–18 h. After staining, the slides were washed twice with PBS, once with absolute methanol, and then mounted with 50% glycerol/PBS. The percentage of β-galactosidase-positive cells were counted with ImageJ using the Cell Counter plugin. A total of nine images containing 100–300 cells were scored to determine the percentages of positive cells."}, "[4]": {"molecular_target": "AR-V7 (Homo sapiens, UniProt P10275)", "sequence (P10275 1-644 isoform P10275-3)": "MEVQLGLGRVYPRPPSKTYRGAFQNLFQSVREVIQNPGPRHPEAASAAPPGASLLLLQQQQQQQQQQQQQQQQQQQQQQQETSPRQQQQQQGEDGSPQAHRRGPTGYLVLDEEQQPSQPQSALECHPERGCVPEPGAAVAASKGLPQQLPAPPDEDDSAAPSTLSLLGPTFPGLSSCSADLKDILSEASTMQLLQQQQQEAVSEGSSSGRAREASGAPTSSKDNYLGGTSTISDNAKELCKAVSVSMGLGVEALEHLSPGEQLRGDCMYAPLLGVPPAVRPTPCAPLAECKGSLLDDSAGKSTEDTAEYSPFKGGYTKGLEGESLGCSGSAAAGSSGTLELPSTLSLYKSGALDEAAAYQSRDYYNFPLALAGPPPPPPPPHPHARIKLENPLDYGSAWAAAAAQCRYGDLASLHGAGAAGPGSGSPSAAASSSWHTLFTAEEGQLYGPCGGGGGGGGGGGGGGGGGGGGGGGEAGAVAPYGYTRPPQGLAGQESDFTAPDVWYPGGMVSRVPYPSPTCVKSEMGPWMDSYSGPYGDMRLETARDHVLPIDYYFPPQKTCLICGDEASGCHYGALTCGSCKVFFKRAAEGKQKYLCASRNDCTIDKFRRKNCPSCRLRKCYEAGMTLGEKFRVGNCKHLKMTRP", "test": "Transcriptional reporter assay for AR-V7 (V7BS3-luciferase) in LNCaP cells", "conditions": "enzalutamide 10 µM, EPI-002 25 µM, juglone 20 µM, ATRA 10 µM, 24 h"}, "[5]": {"molecular_target": "T2, full-length AR (Homo sapiens, UniProt P10275, T878A)", "T2 construct": "Transcriptional activity of full-length AR was assessed in LNCaP cells; endogenous in cells; host or cells: LNCaP", "T2 sequence (P10275 1-920 T878A)": "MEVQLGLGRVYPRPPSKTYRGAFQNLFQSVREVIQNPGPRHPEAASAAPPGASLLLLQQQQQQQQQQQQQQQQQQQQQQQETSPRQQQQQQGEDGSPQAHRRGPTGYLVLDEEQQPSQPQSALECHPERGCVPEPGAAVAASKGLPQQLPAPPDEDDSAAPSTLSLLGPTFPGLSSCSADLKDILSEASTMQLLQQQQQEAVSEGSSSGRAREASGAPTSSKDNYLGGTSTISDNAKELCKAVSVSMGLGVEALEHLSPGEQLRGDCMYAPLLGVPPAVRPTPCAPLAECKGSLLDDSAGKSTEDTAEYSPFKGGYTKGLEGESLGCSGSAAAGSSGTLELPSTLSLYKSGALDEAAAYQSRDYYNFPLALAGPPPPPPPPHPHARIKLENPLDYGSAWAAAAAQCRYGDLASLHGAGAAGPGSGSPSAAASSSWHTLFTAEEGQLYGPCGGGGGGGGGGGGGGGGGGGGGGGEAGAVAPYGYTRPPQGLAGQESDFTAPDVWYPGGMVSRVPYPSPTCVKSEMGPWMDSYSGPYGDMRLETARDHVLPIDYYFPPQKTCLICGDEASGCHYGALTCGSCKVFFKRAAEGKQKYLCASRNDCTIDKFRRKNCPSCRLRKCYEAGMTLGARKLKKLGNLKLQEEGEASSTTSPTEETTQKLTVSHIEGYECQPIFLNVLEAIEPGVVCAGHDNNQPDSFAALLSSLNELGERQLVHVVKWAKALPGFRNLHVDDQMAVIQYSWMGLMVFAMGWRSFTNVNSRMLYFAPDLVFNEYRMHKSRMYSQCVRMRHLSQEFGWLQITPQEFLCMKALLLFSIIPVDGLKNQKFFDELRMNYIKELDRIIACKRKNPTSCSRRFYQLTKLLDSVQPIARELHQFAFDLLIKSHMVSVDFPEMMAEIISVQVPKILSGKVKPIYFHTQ", "test": "PSA(6.1 kb)-luciferase AR-driven reporter assay in LNCaP cells", "format": "cell-based", "conditions": "for fractional response (Fig. 5g): monotherapy or with 5 µM ATRA"}, "[6]": {"system": "LN95 cells", "test": "BrdU incorporation assay, LN95", "format": "cell-based, human", "conditions": "ENZ 10 µM, EPI-002 25 µM, JUG 20 µM, ATRA 10 µM", "procedure": "(§1) Cells were treated with the inhibitors and stimulated with 1 nM of R1881 (+) or vehicle (−) for 24 to 72 h. Each data point represents the average from an independent experiment where the error bars show the mean ± s.e.m.\n(§2) BrdU incorporation was determined with the colorimetric BrdU ELISA kit (Roche Diagnostics), according to the manufacturer’s protocol. In brief, cells were seeded in 96-well plates (LNCaP, 5000/well; LN95, 8000/well; PC-3 and DU145, 4000/wells) in media with reduced serum (0.5–1%). On the following day, cells were pre-treated with test compounds for 1 h and then incubated with 0.1 nM of R1881. After the indicated incubation times, cells were labeled with 10 μM of BrdU for 2 h and then fixed for the assay."}, "[7]": {"conditions": "led to excessive pill burden; cited from earlier work"}, "[8]": {"system": "DU145 cells", "test": "BrdU incorporation assay, DU145", "format": "cell-based, human", "conditions": "− R1881; ENZ 10 µM, EPI-002 25 µM, JUG 20 µM, ATRA 10 µM", "procedure": "as §1, §2"}, "[9]": {"system": "PC-3 cells", "test": "BrdU incorporation assay, PC-3", "format": "cell-based, human", "conditions": "− R1881; ENZ 10 µM, EPI-002 25 µM, JUG 20 µM, ATRA 10 µM", "procedure": "as §1, §2"}}, "note": "Several values for one entry are separate records, joined by “and”; a condition that tells them apart may be missing. Identical values can stand only once.", "data": [{"molecule": "CC(C)(c1ccc(OC[C@H](O)CO)cc1)c1ccc(OC[C@H](O)CCl)cc1", "note": "[ralaniten]", "values": [{"measurement": "effect on colony formation", "setting": "[1]", "value": "significantly reduced the number of colonies"}, {"measurement": "effect on IL-6-induced transactivation of AR NTD (Gal4-ARN)", "setting": "[2]; IL-6 50 ng/mL", "value": "both blocked"}, {"measurement": "effect on forskolin-induced transactivation of AR NTD (Gal4-ARN)", "setting": "[2]; forskolin 25 μM", "value": "both blocked"}, {"measurement": "SA β-gal-positive cells", "setting": "[3]", "value": 31, "unit": "%"}, {"measurement": "effect on AR-V7-induced V7BS3-luciferase reporter activity", "setting": "[4]", "value": "decreased AR-V7-induced reporter activity"}, {"measurement": "inhibition of reporter activity at highest concentration", "setting": "[5]; 40 µM of ralaniten", "value": "~ 98%"}, {"measurement": "fractional response (Fig. 5g)", "setting": "[5]; EPI-002 20 μM", "value": "0.8041 and 0.7145 and 0.7078 and 0.8391"}, {"measurement": "fractional response (Fig. 5g)", "setting": "[5]; EPI-002 40 μM", "value": "0.9915 and 0.9757 and 0.9847 and 0.9439"}, {"measurement": "effect on proliferation of LN95 cells", "setting": "[6]", "value": "attenuated the proliferation of LN95 cells"}, {"measurement": "pharmacokinetics in clinical testing", "setting": "[7]", "value": "poor pharmacokinetics"}, {"measurement": "BrdU incorporation, DU145 (Fig. 4d)", "setting": "[8]", "value": "0.692 and 0.859 and 0.62"}, {"measurement": "BrdU incorporation, PC-3 (Fig. 4c)", "setting": "[9]", "value": "0.683 and 1.048 and 0.96 and 1.348"}]}]}
